According to patent US20240342106A1, “NANOPARTICLES AND USES THEREOF FOR TREATMENT OF HUMAN IMMUNODEFICIENCY VIRUS” (UNIVERSITY OF MIAMI, priority 2021, published 2024):

Key:
microglia cells [1] = assay: Seahorse MitoStress assay; details: 500 μM, 24 h
microglia cells [2] = assay: ROS production assay (DCFDA) in microglia cells; type: cell-based, Human; details: 1 μM of free ARVs or NPs with respect to the loaded drug, 24 h
Method: ROS Production Assay in Microglia Cells: The ROS generation in the microglia cells were determined using DCFDA assay. Microglia cells were plated in the white wall coated 96-well plate with density of 20,000 cells per well and grown for 16 h. The SQV, EFV, DRV, DTG, EVG and their nanoformulations were added to the cells at concentration of 1 μM with respect to the ARTs for 24 h. After 24 h, the media was collected and used to determine IL-1β, an inflammation maker using commercially available kit. The DCFDA solution was made in media at the concentration of 100 μM. 100 μL of this solution was added to each well and cells were incubated for 30 min. […] The obtained values were normalized using BCA assay.

SMILES: COC(=O)[C@H]1[C@@H](OC(=O)c2ccccc2)C[C@@H]2CC[C@H]1N2C [cocaine]
- ATP production (microglia cells [1]): substantially decreased
- basal respiration (microglia cells [1]): substantially decreased
- maximal respiration (microglia cells [1]): substantially decreased

SMILES: COc1cc2c(cc1Cc1cccc(Cl)c1F)c(=O)c(C(=O)O)cn2[C@H](CO)C(C)C [Elvitegravir]
- ROS generation (microglia cells [2]): increased ROS significantly

SMILES: CC(C)CN(C[C@@H](O)[C@H](Cc1ccccc1)NC(=O)O[C@H]1CO[C@H]2OCC[C@H]21)S(=O)(=O)c1ccc(N)cc1 [Darunavir]
- ROS generation (microglia cells [2]): increased ROS significantly

SMILES: CN[C@@H](C)Cc1ccccc1 [meth, methamphetamine]
- ATP production (microglia cells [1]): substantially decreased
- basal respiration (microglia cells [1]): substantially decreased
- maximal respiration (microglia cells [1]): substantially decreased

SMILES: O=C1Nc2ccc(Cl)cc2[C@@](C#CC2CC2)(C(F)(F)F)O1 [Efavirenz]
- ROS generation (microglia cells [2]): increased ROS significantly

SMILES: C[C@@H]1CCO[C@H]2Cn3cc(C(=O)NCc4ccc(F)cc4F)c(=O)c(O)c3C(=O)N12 [Dolutegravir]
- ROS generation (microglia cells [2]): increased ROS significantly
